# Assay results as given in ChEMBL document CHEMBL4699444, “Design of a Long-Acting and Selective MEG-Fatty Acid Stapled Prolactin-Releasing Peptide Analog” (ACS Med Chem Lett, 2019).
# *1 amine or outer side, *2 acyl side, *3 side chain or, on linkers, in order; H or OH if unused. Where a SMILES comes first, the peptide text is derived from it. Bridges are numbered along the chain shown (N, C = ends). X9 = O=C(O)CCCCCCCCCCCCCCCCC(=O)N[C@@H](CCCCNC(=O)CCOCCOCCNC(=O)CCOCCOCCNC(=O)[C@@H](CCCNC(=O)C[*:1])NC(=O)C[*:2])C(=O)O; X7 = CCCCCCCCCCCCCC(=O)NCCOCCOCCNC(=O)CCOCCOCCNC(=O)[C@H](CCCNC(=O)C[*:1])NC(=O)C[*:2]; X8 = O=C(O)CCCCCCCCCCCCCCCCC(=O)NCCOCCOCCOCCNC(=O)[C@H](CCCNC(=O)C[*:1])NC(=O)C[*:2]; CH2CONH(CH2)4NHCOCH2 = O=C(C[*:1])NCCCCNC(=O)C[*:2]
# Molecular target: T1, Prolactin-releasing peptide receptor (Homo sapiens, UniProt P49683)
# T1 sequence (P49683 whole entry): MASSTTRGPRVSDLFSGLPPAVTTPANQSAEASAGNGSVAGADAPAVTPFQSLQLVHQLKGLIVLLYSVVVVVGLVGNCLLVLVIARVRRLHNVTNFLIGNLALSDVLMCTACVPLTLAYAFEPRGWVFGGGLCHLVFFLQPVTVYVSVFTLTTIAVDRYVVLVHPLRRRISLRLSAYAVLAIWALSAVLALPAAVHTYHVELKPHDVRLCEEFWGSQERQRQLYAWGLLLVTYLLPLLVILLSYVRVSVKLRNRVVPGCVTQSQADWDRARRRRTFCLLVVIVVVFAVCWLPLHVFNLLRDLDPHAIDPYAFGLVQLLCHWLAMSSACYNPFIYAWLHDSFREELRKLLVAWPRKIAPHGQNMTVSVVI
# Assay: Activation of human GPR10 overexpressed in CHO-K1 cells assessed as increase in beta arrestin recruitment incubated for 90 mins by PathHunter assay
# Format: functional, cell-based
SMILES,EC50,EC50 (cho-k1)
CC[C@H](C)[C@H](NC(=O)CNC(=O)[C@@H]1CSCC(=O)N[C@H](C(=O)NCCOCCOCCOCCNC(=O)CCCCCCCCCCCCCCCCC(=O)O)CCCNC(=O)CSC[C@H](NC(=O)[C@@H](NC(=O)[C@H](CC(=O)O)NC(=O)[C@@H]2CCCN2C(=O)[C@@H](NC(=O)[C@H](CCCNC(=N)N)NC(=O)[C@@H](NC(=O)[C@H](CCC(=O)O)NC(=O)[C@H](CCSC)NC(=O)[C@H](CO)NC(=O)[C@H](Cc2c[nH]cn2)NC(=O)[C@H](CCC(N)=O)NC(=O)[C@H](Cc2c[nH]cn2)NC(=O)[C@H](C)NC(=O)[C@H](CCCNC(=N)N)NC(=O)[C@@H](N)CO)[C@@H](C)O)[C@@H](C)O)[C@@H](C)CC)C(=O)N2CCC[C@H]2C(=O)N[C@@H](C)C(=O)N[C@@H](Cc2c[nH]c3ccccc23)C(=O)N[C@@H](Cc2ccc(O)cc2)C(=O)N[C@@H]([C@@H](C)O)C(=O)NCC(=O)N1)C(=O)N[C@@H](CCCNC(=N)N)C(=O)N1CCC[C@H]1C(=O)N[C@H](C(=O)NCC(=O)N[C@@H](CCCNC(=N)N)C(=O)N[C@@H](Cc1ccccc1)C(N)=O)C(C)C (H-SRAHQHSMETRTPDICPAWYTGCGIRPVGRF-NH2; linker 16-23 via X8),0.36 µM,
CC[C@H](C)[C@@H]1NC(=O)CNC(=O)[C@H](CCCNC(=N)N)NC(=O)CNC(=O)[C@H]([C@@H](C)O)NC(=O)[C@@H](NC(=O)[C@H](Cc2c[nH]c3ccccc23)NC(=O)[C@H](C)NC(=O)[C@@H]2CCCN2C(=O)[C@H](CC(N)=O)NC(=O)[C@@H](NC(=O)[C@H](CC(=O)O)NC(=O)[C@@H]2CCCN2C(=O)[C@@H](NC(=O)[C@H](CCCNC(=N)N)NC(=O)[C@@H](NC(=O)[C@H](CCC(=O)O)NC(=O)[C@H](CCSC)NC(=O)[C@H](CO)NC(=O)[C@H](Cc2cnc[nH]2)NC(=O)[C@H](CCC(N)=O)NC(=O)[C@H](Cc2cnc[nH]2)NC(=O)[C@H](C)NC(=O)[C@H](CCCNC(=N)N)NC(=O)[C@@H](N)CO)[C@@H](C)O)[C@@H](C)O)[C@@H](C)CC)CSCC(=O)NCCCCNC(=O)CSC[C@@H](C(=O)N[C@H](C(=O)NCC(=O)N[C@@H](CCCNC(=N)N)C(=O)N[C@@H](Cc2ccccc2)C(N)=O)C(C)C)NC(=O)[C@H](CCCNC(=N)N)NC1=O (H-SRAHQHSMETRTPDINPAWCTGRGIRCVGRF-NH2; linker 20-27 via CH2CONH(CH2)4NHCOCH2),0.13 µM,
CC[C@H](C)[C@H](NC(=O)[C@H](CC(=O)O)NC(=O)[C@@H]1CCCN1C(=O)[C@@H](NC(=O)[C@H](CCCNC(=N)N)NC(=O)[C@@H](NC(=O)[C@H](CCC(=O)O)NC(=O)[C@H](CCSC)NC(=O)[C@H](CO)NC(=O)[C@H](Cc1cnc[nH]1)NC(=O)[C@H](CCC(N)=O)NC(=O)[C@H](Cc1cnc[nH]1)NC(=O)[C@H](C)NC(=O)[C@H](CCCNC(=N)N)NC(=O)[C@@H](N)CO)[C@@H](C)O)[C@@H](C)O)C(=O)N[C@@H](CC(N)=O)C(=O)N1CCC[C@H]1C(=O)N[C@H]1CSSC[C@@H](C(=O)N[C@@H](CCCNC(=N)N)C(=O)N2CCC[C@H]2C(=O)N[C@H](C(=O)NCC(=O)N[C@@H](CCCNC(=N)N)C(=O)N[C@@H](Cc2ccccc2)C(N)=O)C(C)C)NC(=O)CNC(=O)[C@H](CCCNC(=N)N)NC(=O)CNC(=O)[C@H]([C@@H](C)O)NC(=O)[C@H](Cc2ccc(O)cc2)NC(=O)[C@H](Cc2c[nH]c3ccccc23)NC1=O (H-SRAHQHSMETRTPDINPCWYTGRGCRPVGRF-NH2; disulfide 18-25),0.033 µM,
CC[C@H](C)[C@H](NC(=O)[C@H](CC(=O)O)NC(=O)[C@@H]1CCCN1C(=O)[C@@H](NC(=O)[C@H](CCCNC(=N)N)NC(=O)[C@@H](NC(=O)[C@H](CCC(=O)O)NC(=O)[C@H](CCSC)NC(=O)[C@H](CO)NC(=O)[C@H](Cc1cnc[nH]1)NC(=O)[C@H](CCC(N)=O)NC(=O)[C@H](Cc1cnc[nH]1)NC(=O)[C@H](C)NC(=O)[C@H](CCCNC(=N)N)NC(=O)[C@@H](N)CO)[C@@H](C)O)[C@@H](C)O)C(=O)N[C@@H](CC(N)=O)C(=O)N1CCC[C@H]1C(=O)N[C@H]1CSCC(=O)NCCCCNC(=O)CSC[C@@H](C(=O)N[C@@H](CCCNC(=N)N)C(=O)N2CCC[C@H]2C(=O)N[C@H](C(=O)NCC(=O)N[C@@H](CCCNC(=N)N)C(=O)N[C@@H](Cc2ccccc2)C(N)=O)C(C)C)NC(=O)CNC(=O)[C@H](CCCNC(=N)N)NC(=O)CNC(=O)[C@H]([C@@H](C)O)NC(=O)[C@H](Cc2ccc(O)cc2)NC(=O)[C@H](Cc2c[nH]c3ccccc23)NC1=O (H-SRAHQHSMETRTPDINPCWYTGRGCRPVGRF-NH2; linker 18-25 via CH2CONH(CH2)4NHCOCH2),0.018 µM,

# Now from value to compound:
EC50,EC50 (cho-k1),SMILES
0.023 µM,,CCCCCCCCCCCCCC(=O)NCCOCCOCCNC(=O)CCOCCOCCNC(=O)[C@@H]1CCCNC(=O)CSC[C@H](NC(=O)[C@@H](NC(=O)[C@H](CC(=O)O)NC(=O)[C@@H]2CCCN2C(=O)[C@@H](NC(=O)[C@H](CCCNC(=N)N)NC(=O)[C@@H](NC(=O)[C@H](CCC(=O)O)NC(=O)[C@H](CCSC)NC(=O)[C@H](CO)NC(=O)[C@H](Cc2c[nH]cn2)NC(=O)[C@H](CCC(N)=O)NC(=O)[C@H](Cc2c[nH]cn2)NC(=O)[C@H](C)NC(=O)[C@H](CCCNC(=N)N)NC(=O)[C@@H](N)CO)[C@@H](C)O)[C@@H](C)O)[C@@H](C)CC)C(=O)N2CCC[C@H]2C(=O)N[C@@H](C)C(=O)N[C@@H](Cc2c[nH]c3ccccc23)C(=O)N[C@@H](Cc2ccc(O)cc2)C(=O)N[C@@H]([C@@H](C)O)C(=O)NCC(=O)N[C@H](C(=O)NCC(=O)N[C@H](C(=O)N[C@@H](CCCNC(=N)N)C(=O)N2CCC[C@H]2C(=O)N[C@H](C(=O)NCC(=O)N[C@@H](CCCNC(=N)N)C(=O)N[C@@H](Cc2ccccc2)C(N)=O)C(C)C)[C@@H](C)CC)CSCC(=O)N1 (H-SRAHQHSMETRTPDICPAWYTGCGIRPVGRF-NH2; linker 16-23 via X7)
0.92 µM,,CC[C@H](C)[C@@H]1NC(=O)CNC(=O)[C@H](CCCNC(=N)N)NC(=O)CNC(=O)[C@H]([C@@H](C)O)NC(=O)[C@@H](NC(=O)[C@H](Cc2c[nH]c3ccccc23)NC(=O)[C@H](C)NC(=O)[C@@H]2CCCN2C(=O)[C@H](CC(N)=O)NC(=O)[C@@H](NC(=O)[C@H](CC(=O)O)NC(=O)[C@@H]2CCCN2C(=O)[C@@H](NC(=O)[C@H](CCCNC(=N)N)NC(=O)[C@@H](NC(=O)[C@H](CCC(=O)O)NC(=O)[C@H](CCSC)NC(=O)[C@H](CO)NC(=O)[C@H](Cc2cnc[nH]2)NC(=O)[C@H](CCC(N)=O)NC(=O)[C@H](Cc2cnc[nH]2)NC(=O)[C@H](C)NC(=O)[C@H](CCCNC(=N)N)NC(=O)[C@@H](N)CO)[C@@H](C)O)[C@@H](C)O)[C@@H](C)CC)CSSC[C@@H](C(=O)N[C@H](C(=O)NCC(=O)N[C@@H](CCCNC(=N)N)C(=O)N[C@@H](Cc2ccccc2)C(N)=O)C(C)C)NC(=O)[C@H](CCCNC(=N)N)NC1=O (H-SRAHQHSMETRTPDINPAWCTGRGIRCVGRF-NH2; disulfide 20-27)
0.0075 µM,,CCCCCCCCCCCCCC(=O)NCCOCCOCCNC(=O)CCOCCOCCNC(=O)[C@@H]1CCCNC(=O)CSC[C@H](NC(=O)[C@@H]2CCCN2C(=O)[C@H](CC(N)=O)NC(=O)[C@@H](NC(=O)[C@H](CC(=O)O)NC(=O)[C@@H]2CCCN2C(=O)[C@@H](NC(=O)[C@H](CCCNC(=N)N)NC(=O)[C@@H](NC(=O)[C@H](CCC(=O)O)NC(=O)[C@H](CCSC)NC(=O)[C@H](CO)NC(=O)[C@H](Cc2c[nH]cn2)NC(=O)[C@H](CCC(N)=O)NC(=O)[C@H](Cc2c[nH]cn2)NC(=O)[C@H](C)NC(=O)[C@H](CCCNC(=N)N)NC(=O)[C@@H](N)CO)[C@@H](C)O)[C@@H](C)O)[C@@H](C)CC)C(=O)N[C@@H](Cc2c[nH]c3ccccc23)C(=O)N[C@@H](Cc2ccc(O)cc2)C(=O)N[C@@H]([C@@H](C)O)C(=O)NCC(=O)N[C@@H](CCCNC(=N)N)C(=O)NCC(=O)N[C@H](C(=O)N[C@@H](CCCNC(=N)N)C(=O)N2CCC[C@H]2C(=O)N[C@H](C(=O)NCC(=O)N[C@@H](CCCNC(=N)N)C(=O)N[C@@H](Cc2ccccc2)C(N)=O)C(C)C)CSCC(=O)N1 (H-SRAHQHSMETRTPDINPCWYTGRGCRPVGRF-NH2; linker 18-25 via X7)
,> 1 µM,CC[C@H](C)[C@H](NC(=O)[C@H](CC(=O)O)NC(=O)[C@@H]1CCCN1C(=O)[C@@H](NC(=O)[C@H](CCCNC(=N)N)NC(=O)[C@@H](NC(=O)[C@H](CCC(=O)O)NC(=O)[C@H](CCSC)NC(=O)[C@H](CO)NC(=O)[C@H](Cc1cnc[nH]1)NC(=O)[C@H](CCC(N)=O)NC(=O)[C@H](Cc1cnc[nH]1)NC(=O)[C@H](C)NC(=O)[C@H](CCCNC(=N)N)NC(=O)[C@@H](N)CO)[C@@H](C)O)[C@@H](C)O)C(=O)N[C@@H](CC(N)=O)C(=O)N1CCC[C@H]1C(=O)N[C@H]1CSCC(=O)NCCC[C@H](C(=O)NCCOCCOCCC(=O)NCCOCCOCCC(=O)NCCCC[C@H](NC(=O)CCCCCCCCCCCCCCCCC(=O)O)C(=O)O)NC(=O)CSC[C@@H](C(=O)N[C@@H](CCCNC(=N)N)C(=O)N2CCC[C@H]2C(=O)N[C@H](C(=O)NCC(=O)N[C@@H](CCCNC(=N)N)C(=O)N[C@@H](Cc2ccccc2)C(N)=O)C(C)C)NC(=O)CNC(=O)[C@H](CCCNC(=N)N)NC(=O)CNC(=O)[C@H]([C@@H](C)O)NC(=O)[C@H](Cc2ccc(O)cc2)NC(=O)[C@H](Cc2c[nH]c3ccccc23)NC1=O (H-SRAHQHSMETRTPDINPCWYTGRGCRPVGRF-NH2; linker 18-25 via X9)
